The results in this text go back to patent US6649636B1, “Heteroaryl phenyl pyrazole compounds as anti-inflammatory/analgesic agents” (Pfizer Inc., priority 1999, dated 2003).

By melting point is commonly meant the temperature of the solid-liquid transition. Consider `Cc1cc(-c2cc(C(F)(F)F)nn2-c2ccc(S(C)(=O)=O)cn2)ccc1-c1ccco1` [Example 15], for which the melting point lay within 160 to 161.1 °C. The result for `CCc1c(C(F)(F)F)nn(-c2ccc(S(C)(=O)=O)cn2)c1-c1ccc(-c2cscn2)c(C)c1` [Example 13] reads 163 to 164 °C. In turn, `CS(=O)(=O)c1ccc(-n2nc(C(F)(F)F)c(F)c2-c2ccc(-c3cscn3)cc2)cn1` [Example 7] came in with a melting point of 170.5 to 171 °C.

`Cc1cc(-c2c(C#N)cnn2-c2ccc(S(C)(=O)=O)cn2)ccc1-c1cscn1` [Example 11] returned a melting point of 223 to 224 °C.

Consider `Cc1cc(-c2cc(C(F)F)nn2-c2ccc(S(C)(=O)=O)cn2)ccc1-c1cscn1` [Example 27], for which the melting point was 156.9 °C.

Compound `Cc1ccc(-c2ccc(-c3cc(C(F)(F)F)nn3-c3ccc(S(C)(=O)=O)nc3)cc2)s1` [Example 35] yielded a melting point of 123 to 124 °C. The same measure for `CS(=O)(=O)c1ccc(-n2nc(C(F)(F)F)cc2-c2ccc(-c3cscn3)cc2F)nc1` [Example 21]: 194.3 °C; for `Cc1cc(-c2cc(C(F)(F)F)nn2-c2ccc(S(C)(=O)=O)cn2)c(C)cc1-c1cscn1` [Example 10]: 214 to 215 °C; for `Cc1cc(-c2cc(C(F)(F)C(F)(F)F)nn2-c2ccc(S(C)(=O)=O)nc2)ccc1-c1cscn1` [Example 4]: 120.8 °C.

Consider `COC(=O)c1cc(-c2ccc(-c3cscn3)c(C)c2)n(-c2ccc(S(C)(=O)=O)cn2)n1` [Example 12], for which the melting point was 144 to 145 °C. Regarding `CS(=O)(=O)c1ccc(-n2nc(C(F)(F)F)cc2-c2ccc(-c3ccco3)cc2)nn1` [Example 36], the melting point lay in the range of 209 to 212 °C. The same measure for `Cc1cc(-c2cc(C(F)(F)F)nn2-c2ccc(S(C)(=O)=O)cn2)ccc1-c1nn[nH]n1` [Example 29]: 241 to 242 °C. For `Cc1cc(-c2cc(C(F)(F)F)nn2-c2ccc(S(C)(=O)=O)c(F)n2)ccc1-c1cscn1` [Example 25], the melting point was determined as 158.9 °C.

In turn, `Cc1cc(-c2cc(C(F)(F)F)nn2-c2ccc(S(C)(=O)=O)cn2)ccc1-c1cocn1` [Example 9] displayed a melting point of 154 to 155 °C. Turning to `CS(=O)(=O)c1ccc(-n2nc(C(F)(F)F)cc2-c2ccc(-c3cscn3)cc2Cl)nc1` [Example 22], the melting point is 166.1 °C. Compound `Cc1cc(-c2cc(C(F)(F)F)nn2-c2ccc(S(C)(=O)=O)cn2)ccc1-c1ncco1` [Example 28] registered a melting point of 174.5 to 176 °C. The compound `Cc1cc(-c2cc(C(F)(F)F)nn2-c2ccc(S(C)(=O)=O)cn2)ccc1-c1cscn1` [Example 2] had a melting point of 179 to 182 °C. On to `Cc1cc(-c2cc(C(F)(F)F)nn2-c2ccc(S(C)(=O)=O)cn2)ccc1-c1cnn[nH]1` [Example 30], for which the melting point worked out at 189 °C. For the compound `Cc1cc(-c2cc(C(F)(F)F)nn2-c2ccc(S(C)(=O)=O)cn2)ccc1-c1ccsc1` [Example 16], the melting point lay within 165 to 166 °C. The result for `CS(=O)(=O)c1ccc(-n2nc(C(F)(F)F)cc2-c2ccc(-c3cscn3)c(Cl)c2)nc1` [Example 19] reads 175.6 °C; that for `CS(=O)(=O)c1ccc(-n2nc(C(F)(F)F)cc2-c2ccc(-c3ccc(Cl)s3)cc2)cn1` [Example 34], 155 to 156 °C. The same measure for `Cc1nc(-c2ccc(-c3cc(C(F)(F)F)nn3-c3ccc(S(C)(=O)=O)nc3)cc2)cs1` [Example 32]: 176.9 °C; for `COc1cc(-c2cc(C(F)(F)F)nn2-c2ccc(S(C)(=O)=O)cn2)ccc1-c1cscn1` [Example 20]: 170 to 175 °C; for `Cc1cc(-c2c(Cl)c(C(F)(F)F)nn2-c2ccc(S(C)(=O)=O)nc2)ccc1-c1cscn1` [Example 5]: 81 to 83 °C. As to `CS(=O)(=O)c1ccc(-n2nc(C(F)(F)F)cc2-c2ccc(-c3cscn3)cc2)nc1` [Example 18], the melting point fell in the range of 210 to 211 °C. Consider `CS(=O)(=O)c1ccc(-n2nc(C(F)(F)F)cc2-c2ccc(-c3ccco3)cc2)cn1` [Example 1, 5-[4-(2-Furyl)phenyl]-1-[2-(methylsulfonylpyridin)-5-yl]-3-trifluoromethyl-1H-pyrazole], for which the melting point was in the range of 106 to 109 °C. On to `CCc1cc(-c2cc(C(F)(F)F)nn2-c2ccc(S(C)(=O)=O)cn2)ccc1-c1cscn1` [Example 23], for which the melting point turned out to be 165.8 °C. The result for `CS(=O)(=O)c1cnc(-n2nc(C(F)(F)F)cc2-c2ccc(-c3ccco3)cc2)s1` [Example 37] reads 188 to 190 °C. For `CS(=O)(=O)c1ccc(-n2nc(C(F)(F)F)cc2-c2ccc(-c3cscn3)c(Cl)c2)cn1` [Example 17], the melting point was in the range of 95 to 100 °C. As to `CS(=O)(=O)c1ccc(-n2nc(C(F)(F)F)cc2-c2ccc(-c3cscn3)c(F)c2)nc1` [Example 24], the melting point is 187.5 °C.
